System: increase in intravesical pressure induced by carbachol in anesthetized dog
Assay: Effect on the increase in intravesical pressure induced by carbachol in anesthetized dog
Assay type: in vivo
Conditions: 0.032 mg/kg, administered intradermally 30 minutes before carbachol (1.8 μg/kg); female Beagle dogs under halothane anesthesia
Experimental: Effect on the increase in intravesical pressure induced by carbachol in anesthetized dog
Female Beagle dogs weighing 8.0-15.0 kg were fasted for 24 hours and maintained under halothane anesthesia. A 12F Foley catheter was lubricated with water soluble jelly, inserted into the urethral orifice, and advanced approximately 10 cm until the balloon tip was placed well inside the bladder. The balloon was then inflated with 5 ml of room air and catheter slowly withdrawn just part the first resistance that was felt at the bladder neck. Urine was completely drained out through the catheter, and 30 ml of biological saline was infused. The catheter was connected to pressure transducer, and intravesical pressure (IVP) was continuously recorded. The test compound was administered intradermally at 30 minutes before the administration of carbachol (1.8 μg/kg). Percent inhibition of IVP increase by test compound was calculated by dividing IVPa (IVP increase induced by carbachol after test compound administration) by IVPb (IVP increase induced by carbachol just before test compound administration).

## Cl.O=C(NS(=O)(=O)CCO)c1ccc(-c2ccc(CCNC[C@H](O)c3ccccc3)cc2)cc1OC1CCCCC1 [Test Compound (1), 3-(Cyclohexyloxy)-N-[(2-hydroxyethyl)sulfonyl]-4′-[2-[[(2R)-2-hydroxy-2-phenylethyl]amino]ethyl]-4-biphenylcarboxamide hydrochloride]
  Percent inhibition of IVP increase: 78%
